Data on four compounds can be found in PubChem BioAssay AID1963845 (Molecular Pharmacology Branch, DTP, NCI, 2024).
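Note: luminescence signal used as surrogate measure of viable cells; spheroids exposed to compounds for seven days before readout; 100% = DMSO vehicle control viability as luminescence relative to vehicle.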

The subject of the first assay is 429239-143-T-J1-PDC complex spheroid viability. The assay is described as follows: Anticancer human tumor 429239-143-T-J1-PDC patient-derived small cell lung carcinoma cell line growth inhibition [POLQ]. The note with it: second compound 0.0316 µM; first compound 1 µM; stronger effect = lower value. A digest of the protocol:
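Growth inhibition in 3D: complex spheroids (tumor PDC, HUVEC, MSC) treated with POLQ inhibitor combinations; where Cmax unknown, highest tested concentration 10 microM, except SN-38 at 1 microM.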
Turning to `CNCc1ccc(-c2[nH]c3cc(F)cc4c3c2CCNC4=O)cc1` + COC1C(OC(N)=O)C(O)C(Oc2ccc3c(O)c(NC(=O)c4ccc(O)c(CC=C(C)C)c4)c(=O)oc3c2C)OC1(C)C, the viability, T/C is 66.5%.

Take `O=C(c1cc(Cc2n[nH]c(=O)c3ccccc23)ccc1F)N1CCN(C(=O)C2CC2)CC1` + COC1C(OC(N)=O)C(O)C(Oc2ccc3c(O)c(NC(=O)c4ccc(O)c(CC=C(C)C)c4)c(=O)oc3c2C)OC1(C)C: the viability, T/C was 82.3%.

Staying with this assay, now noted: second compound 0.0316 µM; first compound 3.16 µM; stronger effect = lower value.
`CNCc1ccc(-c2[nH]c3cc(F)cc4c3c2CCNC4=O)cc1` + COC1C(OC(N)=O)C(O)C(Oc2ccc3c(O)c(NC(=O)c4ccc(O)c(CC=C(C)C)c4)c(=O)oc3c2C)OC1(C)C: the viability, T/C was 43.2%.

`O=C(c1cc(Cc2n[nH]c(=O)c3ccccc23)ccc1F)N1CCN(C(=O)C2CC2)CC1` + COC1C(OC(N)=O)C(O)C(Oc2ccc3c(O)c(NC(=O)c4ccc(O)c(CC=C(C)C)c4)c(=O)oc3c2C)OC1(C)C: the viability, T/C was 26.2%.

Still in this assay, the particulars now being: second compound 0.0316 µM; first compound 10 µM; stronger effect = lower value.
Consider `CNCc1ccc(-c2[nH]c3cc(F)cc4c3c2CCNC4=O)cc1` + COC1C(OC(N)=O)C(O)C(Oc2ccc3c(O)c(NC(=O)c4ccc(O)c(CC=C(C)C)c4)c(=O)oc3c2C)OC1(C)C, for which the viability, T/C was 23.2%.

On to `O=C(c1cc(Cc2n[nH]c(=O)c3ccccc23)ccc1F)N1CCN(C(=O)C2CC2)CC1` + COC1C(OC(N)=O)C(O)C(Oc2ccc3c(O)c(NC(=O)c4ccc(O)c(CC=C(C)C)c4)c(=O)oc3c2C)OC1(C)C, for which the viability, T/C is 16.1%.

The assay is the same for the next values; noted with them: second compound 0.1 µM; first compound 0.00316 µM; stronger effect = lower value.
On to `C=CCn1c(=O)c2cnc(Nc3ccc(N4CCN(C)CC4)cc3)nc2n1-c1cccc(C(C)(C)O)n1` + COC1C(OC(N)=O)C(O)C(Oc2ccc3c(O)c(NC(=O)c4ccc(O)c(CC=C(C)C)c4)c(=O)oc3c2C)OC1(C)C, for which the viability, T/C is 92%.

As for `CCc1c2c(nc3ccc(O)cc13)-c1cc3c(c(=O)n1C2)COC(=O)[C@]3(O)CC` + COC1C(OC(N)=O)C(O)C(Oc2ccc3c(O)c(NC(=O)c4ccc(O)c(CC=C(C)C)c4)c(=O)oc3c2C)OC1(C)C, the viability, T/C is 17%.

The same assay, now with this note: second compound 0.1 µM; first compound 0.01 µM; stronger effect = lower value.
Consider `C=CCn1c(=O)c2cnc(Nc3ccc(N4CCN(C)CC4)cc3)nc2n1-c1cccc(C(C)(C)O)n1` + COC1C(OC(N)=O)C(O)C(Oc2ccc3c(O)c(NC(=O)c4ccc(O)c(CC=C(C)C)c4)c(=O)oc3c2C)OC1(C)C, for which the viability, T/C was 104%.

On to `CCc1c2c(nc3ccc(O)cc13)-c1cc3c(c(=O)n1C2)COC(=O)[C@]3(O)CC` + COC1C(OC(N)=O)C(O)C(Oc2ccc3c(O)c(NC(=O)c4ccc(O)c(CC=C(C)C)c4)c(=O)oc3c2C)OC1(C)C, for which the viability, T/C is 17.4%.

The same assay, now with this note: second compound 0.1 µM; first compound 0.0316 µM; stronger effect = lower value.
As for `C=CCn1c(=O)c2cnc(Nc3ccc(N4CCN(C)CC4)cc3)nc2n1-c1cccc(C(C)(C)O)n1` + COC1C(OC(N)=O)C(O)C(Oc2ccc3c(O)c(NC(=O)c4ccc(O)c(CC=C(C)C)c4)c(=O)oc3c2C)OC1(C)C, the viability, T/C was 92.6%.

With `CCc1c2c(nc3ccc(O)cc13)-c1cc3c(c(=O)n1C2)COC(=O)[C@]3(O)CC` + COC1C(OC(N)=O)C(O)C(Oc2ccc3c(O)c(NC(=O)c4ccc(O)c(CC=C(C)C)c4)c(=O)oc3c2C)OC1(C)C, the viability, T/C was 17.8%.

For the compound `CNCc1ccc(-c2[nH]c3cc(F)cc4c3c2CCNC4=O)cc1` + COC1C(OC(N)=O)C(O)C(Oc2ccc3c(O)c(NC(=O)c4ccc(O)c(CC=C(C)C)c4)c(=O)oc3c2C)OC1(C)C, the viability, T/C is 85.5%.

`O=C(c1cc(Cc2n[nH]c(=O)c3ccccc23)ccc1F)N1CCN(C(=O)C2CC2)CC1` + COC1C(OC(N)=O)C(O)C(Oc2ccc3c(O)c(NC(=O)c4ccc(O)c(CC=C(C)C)c4)c(=O)oc3c2C)OC1(C)C: the viability, T/C is 82.7%.

Still in this assay, the particulars now being: second compound 0.1 µM; first compound 0.1 µM; stronger effect = lower value.
As to `C=CCn1c(=O)c2cnc(Nc3ccc(N4CCN(C)CC4)cc3)nc2n1-c1cccc(C(C)(C)O)n1` + COC1C(OC(N)=O)C(O)C(Oc2ccc3c(O)c(NC(=O)c4ccc(O)c(CC=C(C)C)c4)c(=O)oc3c2C)OC1(C)C, the viability, T/C was 105%.

As to `CCc1c2c(nc3ccc(O)cc13)-c1cc3c(c(=O)n1C2)COC(=O)[C@]3(O)CC` + COC1C(OC(N)=O)C(O)C(Oc2ccc3c(O)c(NC(=O)c4ccc(O)c(CC=C(C)C)c4)c(=O)oc3c2C)OC1(C)C, the viability, T/C is 20.6%.

Regarding `CNCc1ccc(-c2[nH]c3cc(F)cc4c3c2CCNC4=O)cc1` + COC1C(OC(N)=O)C(O)C(Oc2ccc3c(O)c(NC(=O)c4ccc(O)c(CC=C(C)C)c4)c(=O)oc3c2C)OC1(C)C, the viability, T/C is 101%.

As for `O=C(c1cc(Cc2n[nH]c(=O)c3ccccc23)ccc1F)N1CCN(C(=O)C2CC2)CC1` + COC1C(OC(N)=O)C(O)C(Oc2ccc3c(O)c(NC(=O)c4ccc(O)c(CC=C(C)C)c4)c(=O)oc3c2C)OC1(C)C, the viability, T/C is 88.6%.

The assay is the same for the next values; noted with them: second compound 0.1 µM; first compound 0.316 µM; stronger effect = lower value.
On to `C=CCn1c(=O)c2cnc(Nc3ccc(N4CCN(C)CC4)cc3)nc2n1-c1cccc(C(C)(C)O)n1` + COC1C(OC(N)=O)C(O)C(Oc2ccc3c(O)c(NC(=O)c4ccc(O)c(CC=C(C)C)c4)c(=O)oc3c2C)OC1(C)C, for which the viability, T/C is 66%.

Regarding `CCc1c2c(nc3ccc(O)cc13)-c1cc3c(c(=O)n1C2)COC(=O)[C@]3(O)CC` + COC1C(OC(N)=O)C(O)C(Oc2ccc3c(O)c(NC(=O)c4ccc(O)c(CC=C(C)C)c4)c(=O)oc3c2C)OC1(C)C, the viability, T/C is 14%.

Consider `CNCc1ccc(-c2[nH]c3cc(F)cc4c3c2CCNC4=O)cc1` + COC1C(OC(N)=O)C(O)C(Oc2ccc3c(O)c(NC(=O)c4ccc(O)c(CC=C(C)C)c4)c(=O)oc3c2C)OC1(C)C, for which the viability, T/C is 80.6%.

For the compound `O=C(c1cc(Cc2n[nH]c(=O)c3ccccc23)ccc1F)N1CCN(C(=O)C2CC2)CC1` + COC1C(OC(N)=O)C(O)C(Oc2ccc3c(O)c(NC(=O)c4ccc(O)c(CC=C(C)C)c4)c(=O)oc3c2C)OC1(C)C, the viability, T/C was 77.8%.

The same assay, now with this note: second compound 0.1 µM; first compound 1 µM; stronger effect = lower value.
For `C=CCn1c(=O)c2cnc(Nc3ccc(N4CCN(C)CC4)cc3)nc2n1-c1cccc(C(C)(C)O)n1` + COC1C(OC(N)=O)C(O)C(Oc2ccc3c(O)c(NC(=O)c4ccc(O)c(CC=C(C)C)c4)c(=O)oc3c2C)OC1(C)C, the viability, T/C is 17.8%.

Turning to `CCc1c2c(nc3ccc(O)cc13)-c1cc3c(c(=O)n1C2)COC(=O)[C@]3(O)CC` + COC1C(OC(N)=O)C(O)C(Oc2ccc3c(O)c(NC(=O)c4ccc(O)c(CC=C(C)C)c4)c(=O)oc3c2C)OC1(C)C, the viability, T/C is 5.7%.

For the compound `CNCc1ccc(-c2[nH]c3cc(F)cc4c3c2CCNC4=O)cc1` + COC1C(OC(N)=O)C(O)C(Oc2ccc3c(O)c(NC(=O)c4ccc(O)c(CC=C(C)C)c4)c(=O)oc3c2C)OC1(C)C, the viability, T/C was 65.9%.

Consider `O=C(c1cc(Cc2n[nH]c(=O)c3ccccc23)ccc1F)N1CCN(C(=O)C2CC2)CC1` + COC1C(OC(N)=O)C(O)C(Oc2ccc3c(O)c(NC(=O)c4ccc(O)c(CC=C(C)C)c4)c(=O)oc3c2C)OC1(C)C, for which the viability, T/C was 74.3%.

Staying with this assay, now noted: second compound 0.1 µM; first compound 3.16 µM; stronger effect = lower value.
Consider `CNCc1ccc(-c2[nH]c3cc(F)cc4c3c2CCNC4=O)cc1` + COC1C(OC(N)=O)C(O)C(Oc2ccc3c(O)c(NC(=O)c4ccc(O)c(CC=C(C)C)c4)c(=O)oc3c2C)OC1(C)C, for which the viability, T/C is 46.3%.

`O=C(c1cc(Cc2n[nH]c(=O)c3ccccc23)ccc1F)N1CCN(C(=O)C2CC2)CC1` + COC1C(OC(N)=O)C(O)C(Oc2ccc3c(O)c(NC(=O)c4ccc(O)c(CC=C(C)C)c4)c(=O)oc3c2C)OC1(C)C: the viability, T/C is 32.9%.

Staying with this assay, now noted: second compound 0.1 µM; first compound 10 µM; stronger effect = lower value.
As for `CNCc1ccc(-c2[nH]c3cc(F)cc4c3c2CCNC4=O)cc1` + COC1C(OC(N)=O)C(O)C(Oc2ccc3c(O)c(NC(=O)c4ccc(O)c(CC=C(C)C)c4)c(=O)oc3c2C)OC1(C)C, the viability, T/C was 21.4%.

Turning to `O=C(c1cc(Cc2n[nH]c(=O)c3ccccc23)ccc1F)N1CCN(C(=O)C2CC2)CC1` + COC1C(OC(N)=O)C(O)C(Oc2ccc3c(O)c(NC(=O)c4ccc(O)c(CC=C(C)C)c4)c(=O)oc3c2C)OC1(C)C, the viability, T/C was 18.2%.

Still in this assay, the particulars now being: second compound 0.316 µM; first compound 0.00316 µM; stronger effect = lower value.
Consider `C=CCn1c(=O)c2cnc(Nc3ccc(N4CCN(C)CC4)cc3)nc2n1-c1cccc(C(C)(C)O)n1` + COC1C(OC(N)=O)C(O)C(Oc2ccc3c(O)c(NC(=O)c4ccc(O)c(CC=C(C)C)c4)c(=O)oc3c2C)OC1(C)C, for which the viability, T/C is 110%.

Take `CCc1c2c(nc3ccc(O)cc13)-c1cc3c(c(=O)n1C2)COC(=O)[C@]3(O)CC` + COC1C(OC(N)=O)C(O)C(Oc2ccc3c(O)c(NC(=O)c4ccc(O)c(CC=C(C)C)c4)c(=O)oc3c2C)OC1(C)C: the viability, T/C was 17.4%.

The same assay, now with this note: second compound 0.316 µM; first compound 0.01 µM; stronger effect = lower value.
As for `C=CCn1c(=O)c2cnc(Nc3ccc(N4CCN(C)CC4)cc3)nc2n1-c1cccc(C(C)(C)O)n1` + COC1C(OC(N)=O)C(O)C(Oc2ccc3c(O)c(NC(=O)c4ccc(O)c(CC=C(C)C)c4)c(=O)oc3c2C)OC1(C)C, the viability, T/C is 88.2%.

Take `CCc1c2c(nc3ccc(O)cc13)-c1cc3c(c(=O)n1C2)COC(=O)[C@]3(O)CC` + COC1C(OC(N)=O)C(O)C(Oc2ccc3c(O)c(NC(=O)c4ccc(O)c(CC=C(C)C)c4)c(=O)oc3c2C)OC1(C)C: the viability, T/C was 18.3%.

Staying with this assay, now noted: second compound 0.316 µM; first compound 0.0316 µM; stronger effect = lower value.
Consider `C=CCn1c(=O)c2cnc(Nc3ccc(N4CCN(C)CC4)cc3)nc2n1-c1cccc(C(C)(C)O)n1` + COC1C(OC(N)=O)C(O)C(Oc2ccc3c(O)c(NC(=O)c4ccc(O)c(CC=C(C)C)c4)c(=O)oc3c2C)OC1(C)C, for which the viability, T/C is 107%.

Take `CCc1c2c(nc3ccc(O)cc13)-c1cc3c(c(=O)n1C2)COC(=O)[C@]3(O)CC` + COC1C(OC(N)=O)C(O)C(Oc2ccc3c(O)c(NC(=O)c4ccc(O)c(CC=C(C)C)c4)c(=O)oc3c2C)OC1(C)C: the viability, T/C was 17.3%.

As to `CNCc1ccc(-c2[nH]c3cc(F)cc4c3c2CCNC4=O)cc1` + COC1C(OC(N)=O)C(O)C(Oc2ccc3c(O)c(NC(=O)c4ccc(O)c(CC=C(C)C)c4)c(=O)oc3c2C)OC1(C)C, the viability, T/C was 102%.

Regarding `O=C(c1cc(Cc2n[nH]c(=O)c3ccccc23)ccc1F)N1CCN(C(=O)C2CC2)CC1` + COC1C(OC(N)=O)C(O)C(Oc2ccc3c(O)c(NC(=O)c4ccc(O)c(CC=C(C)C)c4)c(=O)oc3c2C)OC1(C)C, the viability, T/C is 103%.

Still in this assay, the particulars now being: second compound 0.316 µM; first compound 0.1 µM; stronger effect = lower value.
Consider `C=CCn1c(=O)c2cnc(Nc3ccc(N4CCN(C)CC4)cc3)nc2n1-c1cccc(C(C)(C)O)n1` + COC1C(OC(N)=O)C(O)C(Oc2ccc3c(O)c(NC(=O)c4ccc(O)c(CC=C(C)C)c4)c(=O)oc3c2C)OC1(C)C, for which the viability, T/C was 118%.

With `CCc1c2c(nc3ccc(O)cc13)-c1cc3c(c(=O)n1C2)COC(=O)[C@]3(O)CC` + COC1C(OC(N)=O)C(O)C(Oc2ccc3c(O)c(NC(=O)c4ccc(O)c(CC=C(C)C)c4)c(=O)oc3c2C)OC1(C)C, the viability, T/C is 14.5%.

Turning to `CNCc1ccc(-c2[nH]c3cc(F)cc4c3c2CCNC4=O)cc1` + COC1C(OC(N)=O)C(O)C(Oc2ccc3c(O)c(NC(=O)c4ccc(O)c(CC=C(C)C)c4)c(=O)oc3c2C)OC1(C)C, the viability, T/C is 85.5%.

As to `O=C(c1cc(Cc2n[nH]c(=O)c3ccccc23)ccc1F)N1CCN(C(=O)C2CC2)CC1` + COC1C(OC(N)=O)C(O)C(Oc2ccc3c(O)c(NC(=O)c4ccc(O)c(CC=C(C)C)c4)c(=O)oc3c2C)OC1(C)C, the viability, T/C is 97.2%.
